Data from patent publication US20090036388A1, “Compounds” (priority 2007, published 2009).
Values after ≈ are worked out from the molar mass of the structure shown.

Legend:
[1] = test system: Plasmodium falciparum strain 3D7A; assay: [3H] hypoxanthine incorporation IC50 assay, P. falciparum 3D7A; assay type: cell-based; conditions: 48 hours incubation; for IC50: Plasmodium falciparum
Protocol: (§1) Plasmodium falciparum strains 3D7A and W2.
(§2) The culture medium comprised RPMI 1640 with 25 mM HEPES, sodium bicarbonate and glutamine (GIBCO™ cat. ref.: 52400), supplemented with 10% of pooled human sera AB (Bioreclamation HMSRM-AB)) and HT supplement (0.15 mM hypoxanthine and 24 μM thymidine), (GIBCO™ cat. ref.: 41065). Human sera were decomplemented 30 min. at 56° C., aliquoted and stored frozen at −20° C. until use in this culture medium.
(§3) Red blood cells AB—stock suspensions were prepared from whole blood bags coming from incomplete blood donation, provided by the Spanish Red Cross (<25 days after sampling). This “whole blood” was aliquoted and stored at 4° C.
(§4) To prepare red blood cells for the assay, the whole blood was centrifuged and washed 3 times with RPMI without serum. The upper phase, containing white blood cells was removed. The washed red blood cells were kept as a 50% suspension in complete medium. The prepared cells were stored at 4° C. and were employed in the assay at any time up to 4 days after preparation.
(§5) Test compounds were dissolved at 2 mg/ml in 100% DMSO on the day of the assay. If necessary, complete dissolution was achieved by gentle heating (the mixture was heated at a temperature <37° C.) and sonication (sonication bath).
(§6) For IC50 determinations, 10 serial 2-fold dilutions were prepared in complete medium in the presence of a constant amount of DMSO. Any obvious signs of insolubility of the stock solutions in 100% DMSO or precipitation when these solutions were diluted in assay media, were recorded.
(§7) Plasmodium falciparum strains were maintained in complete medium at an hematocrit of 5% in continuous culture using a method adapted from Trager and Jensen (1, 2).
(§8) The parasitemia was calculated by counting the percentage of parasitized erythrocytes by optical microscopy. Thin films of blood were made every day from each culture flask, fixed with methanol and stained for 10 min. in Giemsa (Merck, cat. ref.: 1.09204) at 10% in buffered water pH 7.2. The glass slides were observed and counted with an optical microscope (Nikon, Eclipse E200) equipped with a 100× immersion oil objective.
(§9) The culture was maintained at an hematocrit of 5%, with a daily change of medium and was diluted when parasitemia had reached about 5%.
(§10) [^3H] Hypoxanthine incorporation assay was conducted using a method adapted from Desjardins et al. (3). The assays were performed in 96 wells flat bottom microplates.
(§11) 1. Serial dilutions of the test compounds (50 μl of a 5× solution/well) were deposited in duplicate. Compounds of this invention (Table 1) were tested in this assay. Chloroquine and Azithromycin were used as control compounds for each assay.
(§12) 3. [^3H]-Hypoxanthine (Amersham Biosciences, cat. ref.: TRK74) was added extemporaneously to the inoculum suspension at a concentration of 1 μCi/ml (equating to […]). 200 μl of the resulting suspension was distributed into each well (other than the control well H12 described below) leading to a final volume of 250 μl per well, at 1% of hematocrit and 0.4% of parasitemia/well.
(§13) 4. In each plate, 2 columns were reserved for control wells: • Column 11: Positive control wells: PRBCs with 0.2% DMSO—(i) to determine DMSO solvent effect on parasite growth (at a final concentration of 0.2%) and (ii) to compare with cultures treated with test compounds. • Column 12 (comprising wells A12-H12): • A12-D12—Background value wells: Uninfected RBCs—blank control to obtain the background reading from RBCs without parasites.
(§14) E12-G12—Solvent effect wells: PRBCs without DMSO—to determine DMSO solvent effect on PRBCs by comparing these wells with column 11 wells.
(§15) H12—Non-radioactive well: PRBCs with cold hypoxanthine—(i) to carry out a thin blood film to determine parasitemia value after incubation by microscopy and (ii) to ensure that the parasites have grown properly during the assay. […]

[2] = test system: Plasmodium falciparum strain W2; assay: [3H] hypoxanthine incorporation IC50 assay, P. falciparum W2; assay type: cell-based; conditions: P. falciparum W2, 48 hours incubation
Protocol: as §1, §2, §3, §4, §5, §6, §7, §8, §9, §10, §11, §12, §13, §14, §15

Plasmodium cynomolgi = conditions: rhesus monkey; cited from earlier work
Plasmodium vivax = conditions: non-immune patients, as compared to controls; cited from earlier work
Plasmodium falciparum = conditions: non-immune patients, as compared to controls; cited from earlier work
Plasmodium berghei = conditions: cited from earlier work
[3] = test system: Plasmodium yoelii nigeriensis; conditions: cited from earlier work

With `CC[C@H]1OC(=O)[C@H](C)[C@@H](O[C@H]2C[C@@](C)(OC)[C@@H](O)[C@H](C)O2)[C@H](C)[C@@H](O[C@@H]2O[C@H](C)C[C@H](N(C)C)[C@H]2OCCCNC(=O)CCCNc2ccnc3cc(Cl)ccc23)[C@](C)(O)C[C@@H](C)CN(C)[C@H](C)[C@@H](O)[C@]1(C)O` [Example 1, 2′-O-[3-({4-[(7-chloro-4-quinolinyl)amino]butanoyl}amino)propyl]-9-deoxo-9a-methyl-9a-aza-9a-homoerythromycin A] the IC50 [1] was ≤ 0.1 mg/L and the IC50 [2] was ≤ 0.1 mg/L.
`CC[C@H]1OC(=O)[C@H](C)[C@@H](O)[C@H](C)[C@@H](O[C@@H]2O[C@H](C)C[C@H](N(C)C)[C@H]2OCCCNC(=O)CCCNc2ccnc3cc(Cl)ccc23)[C@](C)(O)C[C@@H](C)CN(C)[C@H](C)[C@@H](O)[C@]1(C)O` [Example 2, 2′-O-[3-({4-[(7-chloro-4-quinolinyl)amino]butanoyl}amino)propyl]-3-O-decladinosyl-9-deoxo-9a-methyl-9a-aza-9a-homoerythromycin A] showed an IC50 [1] of 0.1 to 0.2 mg/L (≈ 0.112 to 0.224 µM) and an IC50 [2] of 0.1 to 0.2 mg/L (≈ 0.112 to 0.224 µM).
For `CC[C@H]1OC(=O)[C@H](C)[C@@H](O[C@H]2C[C@@](C)(OC)[C@@H](O)[C@H](C)O2)[C@H](C)[C@@H](O[C@@H]2O[C@H](C)C[C@H](N(C)C)[C@H]2OCCCNc2ccnc3cc(Cl)ccc23)[C@](C)(O)C[C@@H](C)CN(C)[C@H](C)[C@@H](O)[C@]1(C)O` [Example 3, 2′-O-{3-[(7-Chloro-4-quinolinyl)amino]propyl}-9-deoxo-9a-methyl-9a-aza-9a-homoerythromycin A], the IC50 [1] was ≤ 0.1 mg/L and the IC50 [2] was ≤ 0.1 mg/L.
With `CC[C@H]1OC(=O)[C@H](C)[C@@H](O)[C@H](C)[C@@H](O[C@@H]2O[C@H](C)C[C@H](N(C)C)[C@H]2OCCCNc2ccnc3cc(Cl)ccc23)[C@](C)(O)C[C@@H](C)CN(C)[C@H](C)[C@@H](OC(C)=O)[C@]1(C)O` [Example 4, 11-O-Acetyl-2′-O-{3-[(7-Chloro-4-quinolinyl)amino]propyl}-3-O-decladinosyl-9-deoxo-9a-methyl-9a-aza-9a-homoerythromycin A] the IC50 [1] was ≤ 0.1 mg/L and the IC50 [2] was ≤ 0.1 mg/L.
For `CC[C@H]1OC(=O)[C@H](C)[C@@H](O)[C@H](C)[C@@H](O[C@@H]2O[C@H](C)C[C@H](N(C)C)[C@H]2OCCCNc2ccnc3cc(Cl)ccc23)[C@](C)(O)C[C@@H](C)CN(C)[C@H](C)[C@@H](O)[C@]1(C)O` [Example 5, 2′-O-{3-[(7-Chloro-4-quinolinyl)amino]propyl}-3-O-decladinosyl-9-deoxo-9a-methyl-9a-aza-9a-homoerythromycin A], the IC50 [1] was ≤ 0.1 mg/L and the IC50 [2] was ≤ 0.1 mg/L.
With `CC[C@H]1OC(=O)[C@H](C)[C@@H](O[C@H]2C[C@@](C)(OC)[C@@H](O)[C@H](C)O2)[C@H](C)[C@@H](O[C@@H]2O[C@H](C)C[C@H](N(C)C)[C@H]2OCCCNc2ccnc3ccccc23)[C@](C)(O)C[C@@H](C)CN(C)[C@H](C)[C@@H](O)[C@]1(C)O` [Example 6, 2′-O-{3-[(4-quinolinyl)amino]propyl}-9-deoxo-9a-methyl-9a-aza-9a-homoerythromycin A] the IC50 [1] was ≤ 0.1 mg/L and the IC50 [2] was ≤ 0.1 mg/L.
With `CC[C@H]1OC(=O)[C@H](C)[C@@H](O[C@H]2C[C@@](C)(OC)[C@@H](O)[C@H](C)O2)[C@H](C)[C@@H](O[C@@H]2O[C@H](C)C[C@H](N(C)C)[C@H]2OCCCNC(=O)CNc2ccnc3cc(Cl)ccc23)[C@](C)(O)C[C@@H](C)CN(C)[C@H](C)[C@@H](O)[C@]1(C)O` [Example 7, 2′-O-[3-({2-[(7-chloro-4-quinolinyl)amino]ethanoyl}amino)propyl]-9-deoxo-9a-methyl-9a-aza-9a-homoerythromycin A] the IC50 [1] was ≤ 0.1 mg/L and the IC50 [2] was ≤ 0.1 mg/L.
For `CC[C@H]1OC(=O)[C@H](C)[C@@H](O)[C@H](C)[C@@H](O[C@@H]2O[C@H](C)C[C@H](N(C)C)[C@H]2OCCCNC(=O)CNc2ccnc3cc(Cl)ccc23)[C@](C)(O)C[C@@H](C)CN(C)[C@H](C)[C@@H](O)[C@]1(C)O` [Example 8, 2′-O-[3-({2-[(7-chloro-4-quinolinyl)amino]ethanoyl}amino)propyl]-3-O-decladinosyl-9-deoxo-9a-methyl-9a-aza-9a-homoerythromycin A], the IC50 [1] was ≤ 0.1 mg/L and the IC50 [2] was 0.1 to 0.2 mg/L (≈ 0.115 to 0.231 µM).
In the case of `CC[C@H]1OC(=O)[C@H](C)[C@@H](O[C@H]2C[C@@](C)(OC)[C@@H](O)[C@H](C)O2)[C@H](C)[C@@H](O[C@@H]2O[C@H](C)C[C@H](N(C)C)[C@H]2OCCCNC(=O)CNc2ccnc3ccccc23)[C@](C)(O)C[C@@H](C)CN(C)[C@H](C)[C@@H](O)[C@]1(C)O` [Example 9, 2′-O-[3-({2-[(4-quinolinyl)amino]ethanoyl}amino)propyl]-9-deoxo-9a-methyl-9a-aza-9a-homoerythromycin A], the IC50 [1] is reported as 0.1 to 0.2 mg/L (≈ 0.101 to 0.202 µM) and the IC50 [2] is reported as ≤ 0.1 mg/L.
Compound `CC[C@H]1OC(=O)[C@H](C)[C@@H](O)[C@H](C)[C@@H](O[C@@H]2O[C@H](C)C[C@H](N(C)C)[C@H]2OCCCNC(=O)CNc2ccnc3ccccc23)[C@](C)(O)C[C@@H](C)CN(C)[C@H](C)[C@@H](O)[C@]1(C)O` [Example 10, 2′-O-[3-({2-[(4-quinolinyl)amino]ethanoyl}amino)propyl]-3-O-decladinosyl-9-deoxo-9a-methyl-9a-aza-9a-homoerythromycin A] has an IC50 [1] of 1 to 2.5 mg/L (≈ 1.2 to 3 µM) and an IC50 [2] of 0.2 to 1 mg/L (≈ 0.24 to 1.2 µM).
With `CC[C@H]1OC(=O)[C@H](C)[C@@H](O[C@H]2C[C@@](C)(OC)[C@@H](O)[C@H](C)O2)[C@H](C)[C@@H](O[C@@H]2O[C@H](C)C[C@H](N(C)C)[C@H]2OCCC(=O)NCCNc2ccnc3cc(Cl)ccc23)[C@](C)(O)C[C@@H](C)CN(C)[C@H](C)[C@@H](O)[C@]1(C)O` [Example 11, 2′-O-[3-({2-[(7-chloro-4-quinolinyl)amino]ethyl}amino)-3-oxopropyl]9-deoxo-9a-methyl—9a-aza-9a-homoerythromycin A] the IC50 [1] was ≤ 0.1 mg/L and the IC50 [2] was ≤ 0.1 mg/L.
In the case of `CC[C@H]1OC(=O)[C@H](C)[C@@H](O[C@H]2C[C@@](C)(OC)[C@@H](O)[C@H](C)O2)[C@H](C)[C@@H](O[C@@H]2O[C@H](C)C[C@H](N(C)C)[C@H]2OCCCNC(=O)CCCNc2ccnc3ccccc23)[C@](C)(O)C[C@@H](C)CN(C)[C@H](C)[C@@H](O)[C@]1(C)O` [Example 12, 2′-O-[3-({4-[(4-quinolinyl)amino]butanoyl}amino)propyl]-9-deoxo-9a-methyl-9a-aza-9a-homoerythromycin A], the IC50 [1] is reported as 0.2 to 1 mg/L (≈ 0.196 to 0.982 µM) and the IC50 [2] is reported as 0.1 to 0.2 mg/L (≈ 0.0982 to 0.196 µM).
For `CC[C@H]1OC(=O)[C@H](C)[C@@H](O[C@H]2C[C@@](C)(OC)[C@@H](O)[C@H](C)O2)[C@H](C)[C@@H](O[C@@H]2O[C@H](C)C[C@H](N(C)C)[C@H]2O)[C@](C)(O)C[C@@H](C)CN(C)[C@H](C)[C@@H](O)[C@]1(C)O` [azithromycin], the “IC50 3D7A” value [1] is listed as “H, >H”, the “efficacy in monkey model” value (Plasmodium cynomolgi) is listed as “active” and the IC50 [2] is listed as 2.5 to 3 mg/L (≈ 3.34 to 4.01 µM). The “prophylactic efficacy for Plasmodium vivax” value (Plasmodium vivax) was 98.9% and the “prophylactic efficacy for Plasmodium falciparum” value (Plasmodium falciparum) was 71.6%.
For midecamycinin, the “efficacy in monkey model” value (Plasmodium cynomolgi) is given as “no efficacy”, the “activity in mouse model” value (Plasmodium berghei) is given as “active” and the “activity in mouse model” value [3] is given as “active”.
